Experimental data from patent US5665738A, “Imidazole derivatives and processes for the preparation thereof” (Korea Research Institute of Chemical Technology, priority 1994, dated 1997).

System: angiotensin II receptor
Assay: Angiotensin II receptor binding assay ([3H] angiotensin II displacement)
Conditions: 60 minutes at 25° C., pH 7.2, test concentration not given
Procedure: The inventive compounds were tested to measure their angiotensin II receptor binding capacity as follows.
1. Angiotensin II receptor binding assay
In accordance with the procedure disclosed in Chiu, A. T. et al., Eur. J. Pharm., 157, 13 ([…])t a ligand marked with a radioistope was reacted with an angiotensin II receptor and the reactant was filtered with a glass fiber to remove unreacted ligand. After washing the filter, the amount of the remaining isotope was measured to determine the binding activity of the ligand, as described below in detail.
(i) Isolation of angiotensin II receptor
Sprague-Dawley rats and Wistar rats of 250 to 350 g (from The Korea Research Institute of Chemical Technology) were tested and the test procedures were carried out at 4° C., unless otherwise specified. Adrenal gland was separated from the Sprague-Dawley rats (liver, in the case of Wistar rats) into cortex and medulla. The separated adrenal cortex and medulla were washed with a sucrose buffer solution (0.2M sucrose, 1 mM EDTA, 10 mM Tris, pH 7.2) and homogenized in the same buffer solution by using a Teflon pestle and a Brinkmann homogenizer. The homogenates were centrifuged at 3,000× g for 10 minutes to remove precipitates and further centrifuged at 12,000× g for 13 minutes. The final supernatants were centrifuged at 102,000× g for 1 hour to obtain precipitates, which were washed with a Tris buffer solution (50 mM Tris, 5 mM MgCl2, pH 7.2) and re-centrifuged at 102,000× g for 1 hour. The resulting precipitates were immediately processed at the following step or stored at -70° C.
The precipitates were suspended in a Tris buffer solution. The amount of protein was determined by using a Bio-Rad DC protein analyzing kit and the protein concentration was adjusted to the amounts of: 0.2 to 0.3 mg/ml (Sprague-Dawley rat: adrenal cortex), 1.5 to 2.0 mg/ml (Sprague-Dawley rat: adrenal medulla), and 1.5 to 2.0 mg/ml (Wistar rat: liver). To the suspension, bovine serum albumin (BSA) was added to a concentration of 0.25 wt % and the resultant was immediately processed at the following step or stored at -70° C.
(ii) Measurement of angiotensin II receptor binding capacity
50 μl (based on ligand) of [^3 H] angiotensin II (NEN, NET-446) and 10 μl of each of the test compounds with various concentrations were added to the buffer solution (50 mM Tris (pH 7.2), 5 mM MgCl2, 0.25% BSA) to adjust the final volume to be 0.5 ml. Losartan (Dup 753), which is disclosed in EP No. 400,974 issued to Merck, was used as the control compound. 100 μl of the receptor suspension was added thereto and the resulting solution was reacted for 60 minutes while stirring in a water bath at 25° C. 3 ml of cold buffer solution for analysis was added to cease the reaction. The isotope which was bound to the receptor was isolated from the resultant by using Brandel Cell Harvester System with Whatman glass fiber GF/C. After washing the filter, the radioactivity of the filter was determined by using a liquid scintillation counter. Binding inhibition (%) of the test compound was calculated as follows:
Binding Inhibition (%)=[{(T-B)-(S-B)}/(T-B)]×100
wherein T is the radioactivity (cpm) of the reaction product untreated with the test compound, S is the radioactivity (cpm) of the reaction product treated with the test compound, and B is the radioactivity (cpm) of blank test.

SMILES | Binding Inhibition (%)
CCCCc1nc(Cl)c(C(=O)c2ccc(CN(CC)CC)cn2)n1Cc1ccc(-c2ccccc2-c2nnn[nH]2)cc1 [Compound 34, {2-butyl-5-chloro-3-[(2'-(1H-tetrazol-5-yl)biphenyl-4-yl)methyl]-3H-imidazol-4-yl}[5-((diethylamino)methyl)pyridin-2-yl]methanone] | 95.6
CCCCc1nc(Cl)c(C(=O)c2ccc(CCl)cn2)n1Cc1ccc(-c2ccccc2-c2nnn[nH]2)cc1 [Compound 29, {2-butyl-5-chloro-3-[(2'-(1H-tetrazol-5-yl)biphenyl-4-yl)methyl]-3H-imidazol-4-yl}[5-(chloromethyl)pyridin-2-yl]methanone] | 83.6
CCCCc1nc(Cl)c(C(O)c2cccc(C(=O)N(CC)CC)[n+]2[O-])n1Cc1ccc(-c2ccccc2-c2nn[nH]n2)cc1 (stereo not drawn) [Compound 36, {2-butyl-5-chloro-3-[(2'-(1H-tetrazol-5-yl)biphenyl-4-yl)methyl]-3H-imidazol-4-yl}[6-(diethylamino)carbonyl-1-oxypyridin-2-yl]methanol] | 75.4
CCCCc1nc(Cl)c(C(=O)c2ccc(C(OC)OC)c(C)[n+]2[O-])n1Cc1ccc(-c2ccccc2-c2nn[nH]n2)cc1 [Compound 39, {2-butyl-5-chloro-3-[(2'-(1H-tetrazol-5-yl)biphenyl-4-yl)methyl]-3H-imidazol-4-yl}[5-(dimethoxymethyl)-6-methyl-1-oxypyridin-2-yl]methanone] | 87.5
CCCCc1nc(Cl)c(C(O)c2cccc(C=O)n2)n1Cc1ccc(-c2ccccc2-c2nnn[nH]2)cc1 (stereo not drawn) [Compound 5, {2-butyl-5-chloro-3-[(2'-(1H-tetrazol-5-yl)biphenyl-4-yl)methyl]-3H-imidazol-4-yl}(6-formylpyridin-2-yl)methanol] | 64.9
CCCCc1nc(Cl)c(C(O)c2ccc(CN(CC)CC)cn2)n1Cc1ccc(-c2ccccc2-c2nnn[nH]2)cc1 (stereo not drawn) [Compound 33, {2-butyl-5-chloro-3-[(2'-(1H-tetrazol-5-yl)biphenyl-4-yl)methyl]-3H-imidazol-4-yl}[5-((diethylamino)methyl)pyridin-2-yl]methanol] | 73.3
CCCCc1nc(Cl)c(C(O)c2ccc(CO)cn2)n1Cc1ccc(-c2ccccc2-c2nnn[nH]2)cc1 (stereo not drawn) [Compound 30, {2-butyl-5-chloro-3-[(2'-(1H-tetrazol-5-yl)biphenyl-4-yl)methyl]-3H-imidazol-4-yl}[5-(hydroxymethyl)pyridin-2-yl]methanol] | 90.2
CCCCc1nc(Cl)c(C(=O)c2cccc(CO)n2)n1Cc1ccc(-c2ccccc2-c2nnn[nH]2)cc1 [Compound 8, {2-butyl-5-chloro-3-[(2'-(1H-tetrazol-5-yl)biphenyl-4-yl)methyl]-3H-imidazol-4-yl}[6-(hydroxymethyl)pyridin-2-yl]methanone] | 68.9
CCCCc1nc(Cl)c(C(=O)c2cccc(C=O)n2)n1Cc1ccc(-c2ccccc2-c2nnn[nH]2)cc1 [Compound 7, {2-butyl-5-chloro-3-[(2'-(1H-tetrazol-5-yl)biphenyl-4-yl)methyl]-3H-imidazol-4-yl}(6-formylpyridin-2-yl)methanone] | 79.8
CCCCc1nc(Cl)c(C(O)c2cccc(C(OC)OC)n2)n1Cc1ccc(-c2ccccc2-c2nnn[nH]2)cc1 (stereo not drawn) [Compound 4, {2-butyl-5-chloro-3-[(2'-(1H-tetrazol-5-yl)biphenyl-4-yl)methyl]-3H-imidazol-4-yl}[6-(dimethoxymethyl)pyridin-2-yl]methanol] | 71.2

Now from value to compound:

Binding Inhibition (%) | SMILES
48.0 | CCCCc1nc(Cl)c(CO)n1Cc1ccc(-c2ccccc2-c2nn[nH]n2)cc1 [Dup 753, Losartan, reference compound]
96.3 | CCCCc1nc(Cl)c(C(=O)c2cccc(CO)[n+]2[O-])n1Cc1ccc(-c2ccccc2-c2nn[nH]n2)cc1 [Compound 3, {2-butyl-5-chloro-3-[(2'-(1H-tetrazol-5-yl)biphenyl-4-yl)methyl]-3H-imidazol-4-yl}(6-hydroxymethyl-1-oxypyridin-2-yl)methanone]
93.4 | CCCCc1nc(Cl)c(C(=O)c2ccc(C=O)c[n+]2[O-])n1Cc1ccc(-c2ccccc2-c2nn[nH]n2)cc1 [Compound 23, {2-butyl-5-chloro-3-[(2'-(1H-tetrazol-5-yl)biphenyl-4-yl)methyl]-3H-imidazol-4-yl}(5-formyl-1-oxypyridin-2-yl)methanone]
97.9 | CCCCc1nc(Cl)c(C(=O)c2ccc(C[N+]([O-])(CC)CC)cn2)n1Cc1ccc(-c2ccccc2-c2nn[nH]n2)cc1 [Compound 35, {2-butyl-5-chloro-3-[(2'-(1H-tetrazol-5-yl)biphenyl-4-yl)methyl]-3H-imidazo1-4-yl}{5-[((diethyl)(oxy)amino)methyl]pyridin-2-yl}methanone]
89.0 | CCCCc1nc(Cl)c(C(=O)c2cccc(C(C)=O)[n+]2[O-])n1Cc1ccc(-c2ccccc2-c2nn[nH]n2)cc1 [Compound 20, {2-butyl-5-chloro-3-[(2'-(1H-tetrazol-5-yl)biphenyl-4-yl)methyl]-3H-imidazol-4-yl}(6-acetyl-1-oxypyridin-2-yl)methanone]
90.1 | CCCCc1nc(Cl)c(C(=O)c2ccc(C(OC)OC)c[n+]2[O-])n1Cc1ccc(-c2ccccc2-c2nn[nH]n2)cc1 [Compound 22, {2-butyl-5-chloro-3-[(2'-(1H-tetrazol-5-yl)biphenyl-4-yl)methyl]-3H-imidazol-4-yl}[5-(dimethoxymethyl)-1-oxypyridin-2-yl]methanone]
95.4 | CCCCc1nc(Cl)c(C(=O)c2cccc(C=NO)[n+]2[O-])n1Cc1ccc(-c2ccccc2-c2nn[nH]n2)cc1 [Compound 38, {2-butyl-5-chloro-3-[(2'-(1H-tetrazol-5-yl)biphenyl-4-yl)methyl]-3H-imidazol-4-yl}[6-(hydroxyimino)methyl-1-oxypyridin-2-yl]methanone]
91.1 | CCCCc1nc(Cl)c(C(=O)c2cccc(C(OC)OC)[n+]2[O-])n1Cc1ccc(-c2ccccc2-c2nn[nH]n2)cc1 [Compound 1, {2-butyl-5-chloro-3-[(2'-(1H-tetrazol-5-yl)biphenyl-4-yl)methyl]-3H-imidazol-4-yl}[6-(dimethoxymethyl)-1-oxypyridin-2-yl]methanone]
76.1 | CCCCc1nc(Cl)c(C(O)c2ccc(CO)c[n+]2[O-])n1Cc1ccc(-c2ccccc2-c2nn[nH]n2)cc1 (stereo not drawn) [Compound 24, {2-butyl-5-chloro-3-[(2'-(1H-tetrazol-5-yl1)biphenyl1-4-yl)methyl1]-3H-imidazol-4-yl}(5-hydroxymethyl-1-oxypyridin-2-yl)methanol]
88.6 | CCCCc1nc(Cl)c(C(=O)c2cccc(Br)[n+]2[O-])n1Cc1ccc(-c2ccccc2-c2nn[nH]n2)cc1 [Compound 15, {2-butyl-5-chloro-3-[(2'-(1H-tetrazol-5-yl)biphenyl-4-yl)methyl]-3H-imidazol-4-yl}(6-bromo-1-oxypyridin-2-yl)methanone]
86.5 | CCCCc1nc(Cl)c(C(=O)c2cccc(C(=O)OC)[n+]2[O-])n1Cc1ccc(-c2ccccc2-c2nn[nH]n2)cc1 [Compound 21, {2-butyl-5-chloro-3-[(2'-(1H-tetrazol-5-yl)biphenyl-4-yl)methyl]-3H-imidazol-4-yl}(6-methoxycarbonyl-1-oxypyridin-2-yl)methanone]
